Columns and labels:
Test in all cases: relative viability (nuclei count vs DMSO), 5 days (fraction); higher = more cells survive
[1] = compound: COc1cc2ncn(-c3cc(OCc4ccccc4C(F)(F)F)c(C(N)=O)s3)c2cc1OC + CC(C)C[C@H](NC(=O)[C@H](Cc1ccccc1)NC(=O)c1cnccn1)B(O)O [Bortezomib] (partner 0.002 µM)
How it was run: (§1)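 Dosing by pin tool came one day after lung cancer cell lines were seeded in 1536-well plates, using either one drug or a fixed anchor-drug dose plus five library-drug doses (not always all listed) in √10 steps. After 5 days, nuclei were counted on 4× images. Relative viability is treated-well nuclei count divided by vehicle-well nuclei count, and values are medians of duplicate plates.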

[2] = compound: COc1cc2ncn(-c3cc(OCc4ccccc4C(F)(F)F)c(C(N)=O)s3)c2cc1OC + Cc1nc(Nc2ncc(C(=O)Nc3c(C)cccc3Cl)s2)cc(N2CCN(CCO)CC2)n1 [Dasatinib] (partner 0.075 µM)
How it was run: as §1

[3] = compound: COc1cc2ncn(-c3cc(OCc4ccccc4C(F)(F)F)c(C(N)=O)s3)c2cc1OC + CCNC(=O)c1noc(-c2cc(C(C)C)c(O)cc2O)c1-c1ccc(CN2CCOCC2)cc1 [Luminespib] (partner 0.01 µM)
How it was run: as §1

[4] = compound: COc1cc2ncn(-c3cc(OCc4ccccc4C(F)(F)F)c(C(N)=O)s3)c2cc1OC + CC(=O)c1c(C)c2cnc(Nc3ccc(N4CCNCC4)cn3)nc2n(C2CCCC2)c1=O [Palbociclib] (partner 0.5 µM)
How it was run: as §1

Cell Line | relative viability ([1]; first compound 0.05 µM) | relative viability ([1]; first compound 0.1581 µM) | relative viability ([1]; first compound 0.5 µM) | relative viability ([1]; first compound 1.581 µM) | relative viability ([1]; first compound 5 µM) | relative viability ([2]; first compound 0.05 µM) | relative viability ([2]; first compound 0.1581 µM) | relative viability ([2]; first compound 0.5 µM) | relative viability ([2]; first compound 1.581 µM) | relative viability ([2]; first compound 5 µM) | relative viability ([3]; first compound 0.05 µM) | relative viability ([3]; first compound 0.1581 µM) | relative viability ([3]; first compound 0.5 µM) | relative viability ([3]; first compound 1.581 µM) | relative viability ([3]; first compound 5 µM) | relative viability ([4]; first compound 0.05 µM) | relative viability ([4]; first compound 0.1581 µM) | relative viability ([4]; first compound 0.5 µM) | relative viability ([4]; first compound 1.581 µM) | relative viability ([4]; first compound 5 µM)
HARA | 1.09 | 0.986 | 1.02 | 0.215 | 0.0851 | 0.242 | 0.299 | 0.284 | 0.0989 | 0.0669 | 0.951 | 0.654 | 0.238 | 0.0482 | 0.0507 | 0.224 | 0.251 | 0.234 | 0.173 | 0.127
NCI-H2126 | 1.16 | 1.16 | 1.03 | 0.398 | 0.314 | 0.584 | 0.638 | 0.463 | 0.248 | 0.221 | 0.957 | 0.875 | 0.532 | 0.288 | 0.265 | 0.373 | 0.31 | 0.348 | 0.273 | 0.265
LXF-289 | 0.84 | 0.781 | 0.649 | 0.0959 | 0.0616 | 0.225 | 0.206 | 0.124 | 0.037 | 0.0349 | 0.42 | 0.483 | 0.259 | 0.0958 | 0.0607 | 0.607 | 0.57 | 0.481 | 0.233 | 0.107
NCI-H460 | 1.08 | 0.805 | 0.487 | 0.0103 | 0.0108 | 0.593 | 0.636 | 0.283 | 0.0166 | 0.0348 | 0.0239 | 0.0323 | 0.0299 | 0.0165 | 0.0166 | 0.185 | 0.172 | 0.173 | 0.0095 | 0.0133
NCI-H2009 | 0.965 | 0.831 | 0.289 | 0.149 | 0.113 | 0.297 | 0.256 | 0.152 | 0.128 | 0.0782 | 1.03 | 0.941 | 0.819 | 0.127 | 0.101 | 0.191 | 0.203 | 0.188 | 0.178 | 0.127

Source: the supplement of paper PMC10307832
